How the values were obtained:
human PHD2181-417 = human PHD2181-417 (Homo sapiens (Human), UniProt Q9GZT9); assay: PHD2 enzyme activity assay ([14C]-succinic acid production); assay type: biochemical; settings: PHD2181-417 polypeptide, HIF-1α peptide 10 μM, [5-14C]-2-oxoglutaric acid; 30 min pre-incubation; tested 10 μM to 3 nM;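 further: reaction ran 10 min with compound in Tris pH 7.5 buffer with catalase, DTT and ascorbate, labelled succinate freed of leftover 2-oxoglutarate by DNP precipitation, then beta counted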
Chain of human PHD2181-417 (Q9GZT9 181-417): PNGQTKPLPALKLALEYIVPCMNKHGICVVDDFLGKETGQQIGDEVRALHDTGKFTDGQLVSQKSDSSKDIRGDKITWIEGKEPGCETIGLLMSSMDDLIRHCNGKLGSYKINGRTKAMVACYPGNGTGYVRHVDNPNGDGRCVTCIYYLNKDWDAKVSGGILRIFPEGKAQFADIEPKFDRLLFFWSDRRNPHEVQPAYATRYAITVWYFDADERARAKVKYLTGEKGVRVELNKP

Hep-3B cells = assay: Cellular assay: EPO secretion in Hep-3B cells; assay type: cell-based, human; design: EPO secretion, % of control compound: dose or concentration left out as unconfirmed; settings: Homo sapiens, Hep3B, 24 h, EPO secretion as percentage of control compound 7-[(4-Chloro-phenyl)-(5-methyl-isoxazol-3-ylamino)-methyl]-quinolin-8-ol, read-out: Cellular % EPO Stimulation

Structure (SMILES)	Enzyme pIC50 (human PHD2181-417)	EPO secretion, % of control compound (Hep-3B cells) [%]
O=C(O)c1cnn(-c2nc3cc(C(=O)NCc4ccccc4)ccc3[nH]2)c1 [Example 121, 1-(5-Benzylcarbamoyl-1H-benzoimidazol-2-yl)-1H-pyrazole-4-carboxylic Acid]	7.1	18.5
O=C(O)c1cnn(-c2nc3cc(C(=O)NN4CCOCC4)ccc3[nH]2)c1 [Example 122, 1-[5-(Morpholin-4-ylcarbamoyl)-1H-benzoimidazol-2-yl]-1H-pyrazole-4-carboxylic Acid]	6.6	5.4
O=C(O)c1cnn(-c2nc3cc(COCc4ccccc4)ccc3[nH]2)c1 [Example 123, 1-(5-Benzyloxymethyl-1H-benzoimidazol-2-yl)-1H-pyrazole-4-carboxylic Acid]	6.3	61.1
O=C(O)c1cnn(-c2nc3c(Br)cc(F)cc3[nH]2)c1 [Example 124, 1-(4-Bromo-6-fluoro-1H-benzoimidazol-2-yl)-1H-pyrazole-4-carboxylic Acid]	6.3	2.4
O=C(O)c1cnn(-c2nc3ccc4scnc4c3[nH]2)c1 [Example 125, 1-(8H-Imidazo[4′,5′:3,4]benzo[2,1-d]thiazol-7-yl)-1H-pyrazole-4-carboxylic Acid]	6	46.8
O=C(O)c1cnn(-c2nc3cc(C(F)(F)F)c(C(F)(F)F)cc3[nH]2)c1 [Example 126, 1-(5,6-Bis-trifluoromethyl-1H-benzoimidazol-2-yl)-1H-pyrazole-4-carboxylic Acid]	7.4	82.7
O=C(O)c1cnn(-c2nc3c(Cl)c(Cl)c(Cl)cc3[nH]2)c1 [Example 127, 1-(4,5,6-Trichloro-1H-benzoimidazol-2-yl)-1H-pyrazole-4-carboxylic Acid]	6.9	70.6
O=C(O)c1cnn(-c2nc3c(Br)c(Cl)c(Cl)cc3[nH]2)c1 [Example 128, 1-(4-Bromo-5,6-dichloro-1H-benzoimidazol-2-yl)-1H-pyrazole-4-carboxylic Acid]	7.1	24.1
CCNc1cc2nc(-n3cc(C(=O)O)cn3)[nH]c2cc1Cl [Example 130, 1-(6-Chloro-5-ethylamino-1H-benzoimidazol-2-yl)-1H-pyrazole-4-carboxylic Acid]	6.2	48
CCCNc1cc2nc(-n3cc(C(=O)O)cn3)[nH]c2cc1Cl [Example 131, 1-(6-Chloro-5-propylamino-1H-benzoimidazol-2-yl)-1H-pyrazole-4-carboxylic Acid]	6.5	89
O=C(O)c1cnn(-c2nc3cc(NCc4ccccc4)c(Cl)cc3[nH]2)c1 [Example 132, 1-(5-Benzylamino-6-chloro-1H-benzoimidazol-2-yl)-1H-pyrazole-4-carboxylic Acid]	6.2	52.6
O=C(O)c1cnn(-c2nc3cc(Nc4ccccc4)c(Cl)cc3[nH]2)c1 [Example 133, 1-(6-Chloro-5-phenylamino-1H-benzoimidazol-2-yl)-1H-pyrazole-4-carboxylic Acid]	6.9	77
O=C(O)c1cnn(-c2nc3cc(NCCN4CCOCC4)c(Cl)cc3[nH]2)c1 [Example 134, 1-[6-Chloro-5-(2-morpholin-4-yl-ethylamino)-1H-benzoimidazol-2-yl]-1H-pyrazole-4-carboxylic Acid]	6.3	56.5
O=C(O)c1cnn(-c2nc3cc(NS(=O)(=O)C4CC4)c(Cl)cc3[nH]2)c1 [Example 135, 1-(6-Chloro-5-cyclopropanesulfonylamino-1H-benzoimidazol-2-yl)-1H-pyrazole-4-carboxylic Acid]	6.8	17
CS(=O)(=O)Nc1cc2nc(-n3cc(C(=O)O)cn3)[nH]c2cc1Cl [Example 136, 1-(6-Chloro-5-methanesulfonylamino-1H-benzoimidazol-2-yl)-1H-pyrazole-4-carboxylic Acid]	6.8	9
CCS(=O)(=O)Nc1cc2nc(-n3cc(C(=O)O)cn3)[nH]c2cc1Cl [Example 137, 1-(6-Chloro-5-ethanesulfonylamino-1H-benzoimidazol-2-yl)-1H-pyrazole-4-carboxylic Acid]	6.6	11
O=C(O)c1cnn(-c2nc3cc(NS(=O)(=O)c4ccccc4)c(Cl)cc3[nH]2)c1 [Example 138, 1-(5-Benzenesulfonylamino-6-chloro-1H-benzoimidazol-2-yl)-1H-pyrazole-4-carboxylic Acid]	6.8	19

Structure (SMILES)	Enzyme pIC50 (human PHD2181-417)	EPO secretion, % of control compound (Hep-3B cells) [%]
CC(=O)Nc1cc2nc(-n3cc(C(=O)O)cn3)[nH]c2cc1Cl [Example 139, 1-(5-Acetylamino-6-chloro-1H-benzoimidazol-2-yl)-1H-pyrazole-4-carboxylic Acid]	6.3	24
CCC(=O)Nc1cc2nc(-n3cc(C(=O)O)cn3)[nH]c2cc1Cl [Example 140, 1-(6-Chloro-5-propionylamino-1H-benzoimidazol-2-yl)-1H-pyrazole-4-carboxylic Acid]	6.4	10
O=C(O)c1cnn(-c2nc3cc(NC(=O)c4ccccc4)c(Cl)cc3[nH]2)c1 [Example 141, 1-(5-Benzoylamino-6-chloro-1H-benzoimidazol-2-yl)-1H-pyrazole-4-carboxylic Acid]	6.6	33
O=C(CN1CCOCC1)Nc1cc2nc(-n3cc(C(=O)O)cn3)[nH]c2cc1Cl [Example 142, 1-[6-Chloro-5-(2-morpholin-4-yl-acetylamino)-1H-benzoimidazol-2-yl]-1H-pyrazole-4-carboxylic Acid]	6.4	17
O=C(CN1CCCCC1)Nc1cc2nc(-n3cc(C(=O)O)cn3)[nH]c2cc1Cl [Example 143, 1-[6-Chloro-5-(2-piperidin-1-yl-acetylamino)-1H-benzoimidazol-2-yl]-1H-pyrazole-4-carboxylic Acid]	6.2	20
CN1CCN(CC(=O)Nc2cc3nc(-n4cc(C(=O)O)cn4)[nH]c3cc2Cl)CC1 [Example 144, 1-{6-Chloro-5-[2-(4-methyl-piperazin-1-yl)-acetylamino]-1H-benzoimidazol-2-yl}-1H-pyrazole-4-carboxylic Acid]	6.4	16
COc1ccc(Oc2cc3nc(-n4cc(C(=O)O)cn4)[nH]c3cc2Cl)cc1 [Example 145, 1-[6-Chloro-5-(4-methoxy-phenoxy)-1H-benzoimidazol-2-yl]-1H-pyrazole-4-carboxylic Acid]	7.1	13.9
O=C(O)c1cnn(-c2nc3cc(Oc4ccc(Cl)cc4F)c(Cl)cc3[nH]2)c1 [Example 146, 1-[6-Chloro-5-(4-chloro-2-fluoro-phenoxy)-1H-benzoimidazol-2-yl]-1H-pyrazole-4-carboxylic Acid]	7.2	49.9
O=C(O)c1cnn(-c2nc3cc(Oc4ccc(OC(F)(F)F)cc4)c(Cl)cc3[nH]2)c1 [Example 147, 1-[6-Chloro-5-(4-trifluoromethoxy-phenoxy)-1H-benzoimidazol-2-yl]-1H-pyrazole-4-carboxylic Acid]	7.4	45.9
O=C(O)c1cnn(-c2nc3cc(Oc4ccc(F)c(Cl)c4)c(Cl)cc3[nH]2)c1 [Example 148, 1-[6-Chloro-5-(3-chloro-4-fluoro-phenoxy)-1H-benzoimidazol-2-yl]-1H-pyrazole-4-carboxylic Acid]	7.1	38.1
CCSc1cc2nc(-n3cc(C(=O)O)cn3)[nH]c2cc1C(F)(F)F [Example 149, 1-(5-Ethylsulfanyl-6-trifluoromethyl-1H-benzoimidazol-2-yl)-1H-pyrazole-4-carboxylic Acid]	7.3	57.8
CCSc1cc2nc(-n3cc(C(=O)O)cn3)[nH]c2cc1OC(F)(F)F [Example 150, 1-(5-Ethylsulfanyl-6-trifluoromethoxy-1H-benzoimidazol-2-yl)-1H-pyrazole-4-carboxylic Acid]	7.2	47.2
CCSc1cc2nc(-n3cc(C(=O)O)cn3)[nH]c2cc1F [Example 151, 1-(5-Ethylsulfanyl-6-fluoro-1H-benzoimidazol-2-yl)-1H-pyrazole-4-carboxylic Acid]	6.9	107
CCS(=O)(=O)c1cc2nc(-n3cc(C(=O)O)cn3)[nH]c2cc1C(F)(F)F [Example 154, 1-(5-Ethylsulfonyl-6-trifluoromethyl-1H-benzoimidazol-2-yl)-1H-pyrazole-4-carboxylic Acid]	7.6	53.8
CCS(=O)(=O)c1cc2nc(-n3cc(C(=O)O)cn3)[nH]c2cc1OC(F)(F)F [Example 155, 1-(5-Ethylsulfonyl-6-trifluoromethoxy-1H-benzoimidazol-2-yl)-1H-pyrazole-4-carboxylic Acid]	7.6	47.2
CCS(=O)(=O)c1cc2nc(-n3cc(C(=O)O)cn3)[nH]c2cc1F [Example 156, 1-(5-Ethylsulfonyl-6-fluoro-1H-benzoimidazol-2-yl)-1H-pyrazole-4-carboxylic Acid]	7.4	51.9
O=C(O)c1cnn(-c2nc3cc(Sc4ccccc4)c(C(F)(F)F)cc3[nH]2)c1 [Example 159, 1-(5-Phenylsulfanyl-6-trifluoromethyl-1H-benzoimidazol-2-yl)-1H-pyrazole-4-carboxylic Acid]	7.4	11

From patent publication US10851083B2, “Benzoimidazoles as prolyl hydroxylase inhibitors” (Janssen Pharmaceutica NV, priority 2008, dated 2020)
